Data: patent US10927105B1 (Lundbeck La Jolla Research Center, Inc., priority 2017, dated 2021)

Target: MAGL (Homo sapiens (Human), UniProt Q99685)
Experiment: In vitro competitive activity-based protein profiling (human prefrontal cortex membrane fractions, FP-Rh probe), MAGL band
Conditions: read-out: MAGL IC50 (μM) (human); human prefrontal cortex membrane fractions

MAGL, sequence (Q99685 whole entry): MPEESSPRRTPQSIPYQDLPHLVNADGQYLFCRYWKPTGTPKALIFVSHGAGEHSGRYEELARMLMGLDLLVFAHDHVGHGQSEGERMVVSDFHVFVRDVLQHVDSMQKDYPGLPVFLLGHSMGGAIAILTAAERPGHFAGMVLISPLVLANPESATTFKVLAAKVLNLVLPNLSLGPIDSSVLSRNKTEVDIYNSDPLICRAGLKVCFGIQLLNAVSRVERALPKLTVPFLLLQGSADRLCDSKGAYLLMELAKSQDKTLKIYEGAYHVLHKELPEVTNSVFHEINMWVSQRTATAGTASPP

IC50 | Structure (SMILES)
< 0.1 µM | O=C(O)c1ccn(C(=O)N2C[C@H]3C[C@H](OCc4cc(F)cc(Cl)c4)C[C@H]3C2)n1 [Example 53, 1-(trans-5-((3-chloro-5-fluorobenzyl)oxy)-octahydrocyclopenta-[c]pyrrole-2-carbonyl)-1H-pyrazole-3-carboxylic acid]
< 0.1 µM | Cc1cn(C(=O)N2C[C@H]3C[C@H](OCc4cc(F)cc(Cl)c4)C[C@H]3C2)nc1C(=O)O [Example 252, 1-(trans-5-((3-chloro-5-fluorobenzyl)oxy)-octahydrocyclopenta-[c]pyrrole-2-carbonyl)-4-methyl-1H-pyrazole-3-carboxylic acid]
< 0.1 µM | CNC(=O)c1ccn(C(=O)N2CCC3(CCN(Cc4cc(Cl)cc(C(F)(F)F)c4)C3)C2)n1 (centres unmarked) [Example 435, 1-(7-(3-chloro-5-(trifluoromethyl)-benzyl)-2,7-diazaspiro[4.4]-nonane-2-carbonyl)-N-methyl-1H-pyrazole-3-carboxamide]
< 0.1 µM | O=C(O)c1ccn(C(=O)N2C[C@H]3C[C@H](Oc4cccc(C5CC5)c4)C[C@H]3C2)n1 [Example 219, 1-(trans-5-(3-cyclopropyl-phenoxy)-octahydrocyclopenta-[c]pyrrole-2-carbonyl)-1H-pyrazole-3-carboxylic acid]
< 0.1 µM | O=C(O)c1ccn(C(=O)N2CCC3(CCCN3Cc3cc(-n4cccn4)cc(C(F)(F)F)c3)CC2)n1 [Example 32, 1-(1-(3-(1H-pyrazol-1-yl)-5-(Trifluoromethyl)benzyl)-1,8-diazaspiro[4.5]decane-8-carbonyl)-1H-pyrazole-3-carboxylic Acid]
< 0.1 µM | O=C(O)c1ccn(C(=O)N2CCN(Cc3cc(F)cc(Oc4ccccc4Cl)c3)CC2)n1 [Example 319, 1-(4-(3-(2-chlorophenoxy)-5-fluorobenzyl)-piperazine-1-carbonyl)-1H-pyrazole-3-carboxylic acid]
< 0.1 µM | Cc1cn(C(=O)N2C[C@H]3C[C@H](OCc4cccc(C(F)(F)F)c4)C[C@H]3C2)nc1C(=O)O [Example 290, 4-methyl-1-(trans-5-((3-(trifluoromethyl)-benzyl)oxy)-octahydrocyclopenta-[c]pyrrole-2-carbonyl)-1H-pyrazole-3-carboxylic acid]
< 0.1 µM | CN(Cc1ccc(C(F)(F)F)cc1N1CCCCC1)C1(C)CCN(C(=O)n2ccc(C(=O)O)n2)CC1 [Example 397, 1-(4-methyl-4-(methyl(2-(piperidin-1-yl)-4-(trifluoromethyl)-benzyl)amino)-piperidine-1-carbonyl)-1H-pyrazole-3-carboxylic acid]
< 0.1 µM | O=C(O)c1ccn(C(=O)N2CCN(Cc3cccc(Oc4ccc(F)cn4)c3)CC2)n1 [Example 266, 1-(4-(3-((5-fluoropyridin-2-yl)oxy)benzyl)-piperazine-1-carbonyl)-1H-pyrazole-3-carboxylic acid]
< 0.1 µM | CN(Cc1cc(Cl)ccc1C(F)(F)F)C1CCN(C(=O)n2cc(Cl)c(C(=O)O)n2)CC1 [Example 112, 4-chloro-1-(4-((5-chloro-2-(trifluoromethyl)-benzyl)-(methyl)amino)-piperidine-1-carbonyl)-1H-pyrazole-3-carboxylic acid]
< 0.1 µM | O=C(O)c1ccn(C(=O)N2C[C@H]3C[C@H](Oc4cccc(N5CCCC5)c4)C[C@H]3C2)n1 [Example 234, 1-(trans-5-(3-(pyrrolidin-1-yl)phenoxy)-octahydrocyclopenta-[c]pyrrole-2-cathonyl)-1H-pyrazole-3-carboxylic acid]
< 0.1 µM | Cc1cn(C(=O)N2CCN(Cc3cccc(Oc4ccc(Cl)cc4)c3)CC2)nc1C(=O)O [Example 129, 1-(4-(3-(4-chlorophenoxy)-benzyl)-piperazine-1-carbonyl)-4-methyl-1H-pyrazole-3-carboxylic acid]
< 0.1 µM | Cc1cc(-c2ccccc2)ccc1CN1CCN(C(=O)n2ccc(C(=O)O)n2)[C@H](C)C1 [Example 245, (R)-1-(2-methyl-4-((3-methyl-[1,1′-biphenyl]-4-yl)methyl)-piperazine-1-carbonyl)-1H-pyrazole-3-carboxylic acid]
< 0.1 µM | O=C(O)c1nn(C(=O)N2C[C@H]3C[C@H](OCc4cc(F)cc(Cl)c4)C[C@H]3C2)cc1Cl [Example 296, 4-chloro-1-(trans-5-((3-chloro-5-fluorobenzyl)oxy)-octahydrocyclopenta-[c]pyrrole-2-carbonyl)-1H-pyrazole-3-carboxylic acid]
< 0.1 µM | O=C(O)c1ccn(C(=O)N2CCC3(CC2)CN(Cc2cc(Cl)ccc2C(F)(F)F)C3)n1 [Example 313, 1-(2-(5-chloro-2-(trifluoromethyl)-benzyl)-2,7-diazaspiro[3.5]-nonane-7-carbonyl)-1H-pyrazole-3-carboxylic acid]
< 0.1 µM | NC(=O)c1ccn(C(=O)N2CCC3(CCN(Cc4ccc(N5CCOCC5)cc4Cl)C3)CC2)n1 [Example 197, 1-(2-(2-chloro-4-morpholinobenzyl)-2,8-diazaspiro[4.5]-decane-8-carbonyl)-1H-pyrazole-3-carboxamide]

IC50 | Structure (SMILES)
< 0.1 µM | O=C(O)c1nn(C(=O)N2CCN(Cc3cc(F)cc(Oc4ccc(Cl)cc4)c3)CC2)cc1C(F)(F)F [Example 408, 1-(4-(3-(4-chlorophenoxy)-5-fluorobenzyl)-piperazine-1-carbonyl)-4-(trifluoromethyl)-1H-pyrazole-3-carboxylic acid]
< 0.1 µM | O=C(O)c1ccn(C(=O)N2C[C@H]3C[C@H](OCc4cccc(-c5ccccc5)c4)C[C@H]3C2)n1 [Example 278, 1-(trans-5-([1,1′-biphenyl]-3-ylmethoxy)-octahydrocyclopenta-[c]pyrrole-2-carbonyl)-1H-pyrazole-3-carboxylic acid]
< 0.1 µM | O=C(O)c1ccn(C(=O)N2CCC(Oc3cc(N4CCCC4)cc(C(F)(F)F)c3)CC2)n1 [Example 308, 1-(4-(3-(pyrrolidin-1-yl)-5-(trifluoromethyl)-phenoxy)-piperidine-1-carbonyl)-1H-pyrazole-3-carboxylic acid]
< 0.1 µM | Cc1c(CO[C@H]2C[C@@H]3CN(C(=O)n4ccc(C(=O)O)n4)C[C@@H]3C2)cccc1C(F)(F)F [Example 159, 1-(trans-5-((2-methyl-3-(trifluoromethyl)-benzyl)oxy)-octahydrocyclo-penta-nl [c]pyrrole-2-carbonyl)-1H-pyrazole-3-carboxylic acid]
< 0.1 µM | O=C(O)c1ccn(C(=O)N2CCN(Cc3cccc(Oc4cc(C(F)(F)F)ccn4)c3)CC2)n1 [Example 57, 1-(4-(3-((4-(trifluoromethyl)-pyridin-2-yl)oxy)benzyl)-piperazine-1-carbonyl)-1H-pyrazole-3-carboxylic acid]
< 0.1 µM | C[C@@H]1CN(Cc2cccc(OCC(C)(C)O)c2Cl)CCN1C(=O)n1ccc(C(N)=O)n1 [Example 216, (R)-1-(4-(2-chloro-3-(2-hydroxy-2-methylpropoxy)-benzyl)-2-methylpiperazine-1-carbonyl)-1H-pyrazole-3-carboxamide]
< 0.1 µM | O=C(O)c1ccn(C(=O)N2CCC(Oc3ccc(C(F)(F)F)cc3N3CCCC3)CC2)n1 [Example 307, 1-(4-(2-(pyrrolidin-1-yl)-4-(trifluoromethyl)-phenoxy)-piperidine-1-carbonyl)-1H-pyrazole-3-carboxylic acid]
< 0.1 µM | O=C(O)c1nn(C(=O)N2CCC3(CC2)CN(Cc2cc(Cl)ccc2C(F)(F)F)C3)cc1Cl [Example 134, 4-chloro-1-(2-(5-chloro-2-(trifluoromethyl)-benzyl)-2,7-diazaspiro[3.5]-nonane-7-carbonyl)-1H-pyrazole-3-carboxylic acid]
< 0.1 µM | O=C(O)c1nn(C(=O)N2CC3CN(Cc4cc(Cl)ccc4Cl)CC3C2)cc1Cl (centres unmarked) [Example 136, 4-chloro-1-(5-(2,5-dichlorobenzyl)-octahydropyrrolo-[3,4-c]pyrrole-2-carbonyl)-1H-pyrazole-3-carboxylic acid]
< 0.1 µM | O=C(O)c1ccn(C(=O)N2CCN(Cc3ccc(Cl)c(-c4nccs4)c3)CC2)n1 [Example 274, 1-(4-(4-chloro-3-(thiazol-2-yl)benzyl)-piperazine-1-carbonyl)-1H-pyrazole-3-carboxylic acid]
< 0.1 µM | O=C(O)c1ccn(C(=O)N2C[C@H]3C[C@H](Oc4cccc(C5CCCC5)c4)C[C@H]3C2)n1 [Example 232, 1-(trans-5-(3-cyclopentyl-phenoxy)-octahydrocyclopenta-[c]pyrrole-2-carbonyl)-1H-pyrazole-3-carboxylic acid]
< 0.1 µM | Cc1cc(-c2ccccc2)ccc1CN1CCN(C(=O)n2ccc(C(=O)O)n2)CC1 [Example 16, 1-(4-((3-Methyl-[1,1′-biphenyl]-4-yl)methyl)piperazine-1-carbonyl)-1H-pyrazole-3-carboxylic acid]
< 0.1 µM | O=C(O)c1ccn(C(=O)N2CCN(Cc3ccc(C(F)(F)F)cc3N3CC[C@@H](O)C3)CC2)n1 [Example 333, (R)-1-(4-(2-(3-hydroxypyrrolidin-1-yl)-4-(trifluoromethyl)-benzyl)-piperazine-1-carbonyl)-1H-pyrazole-3-carboxylic acid]
< 0.1 µM | O=C(O)c1ccn(C(=O)N2C[C@H]3C[C@H](Oc4cccc(-c5cccnc5)c4)C[C@H]3C2)n1 [Example 241, 1-(trans-5-(3-(pyridin-3-yl)phenoxy)-octahydrocyclopenta-[c]pyrrole-2-carbonyl)-1H-pyrazole-3-carboxylic acid]
< 0.1 µM | O=C(O)c1ccn(C(=O)N2CC3CN(Cc4cc(Cl)cc(C(F)(F)F)c4)CC3C2)n1 (centres unmarked) [Example 124, 1-(5-(3-chloro-5-(trifluoromethyl)-benzyl)-octahydropyrrolo-[3,4-c]pyrrole-2-carbonyl)-1H-pyrazole-3-carboxylic acid]
< 0.1 µM | CNC(=O)c1ccn(C(=O)N2CCC3(CCN(Cc4cc(Cl)ccc4Cl)C3)C2)n1 (centres unmarked) [Example 428, 1-(7-(2,5-dichlorobenzyl)-2,7-diazaspiro[4.4]-nonane-2-carbonyl)-N-methyl-1H-pyrazole-3-carboxamide]
